Measurements from the supplement of paper PMC11551840.

What was measured:
Test in all cases: IC50 (cell viability, 72 h) (ln(µM))
[1] = tested on: ORL-195
Description: (§1)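 Discovery screen of OSCC cell lines in 1,536-well plates. Cells were treated 24 h after seeding with 7 concentrations spanning a 1,000-fold half-log range for 72 h, and viability was read by CellTiter-Glo 2.0 and normalised to DMSO (1) and medium-only (0) controls. IC50 comes from a two-parameter logistic nonlinear mixed-effects fit and is reported as natural log of IC50 in µM.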

[2] = tested on: ORL-214
Description: as §1

[3] = tested on: ORL-215
Description: as §1

[4] = tested on: SAS
Description: as §1

[5] = tested on: ORL-174
Description: as §1

[6] = tested on: ORL-153
Description: as §1

[7] = tested on: ORL-115
Description: as §1

[8] = tested on: ORL-156
Description: as §1

[9] = tested on: HSC-2
Description: as §1

[10] = tested on: BICR10
Description: as §1

[11] = tested on: ORL-48
Description: as §1

[12] = tested on: HO-1-u-1
Description: as §1

[13] = tested on: ORL-166
Description: as §1

[14] = tested on: ORL-136
Description: as §1

[15] = tested on: HSC-4
Description: as §1

[16] = tested on: ORL-150
Description: as §1

[17] = tested on: ORL-188
Description: as §1

[18] = tested on: ORL-204
Description: as §1

[19] = tested on: ORL-207
Description: as §1

[20] = tested on: PE-CA-PJ15
Description: as §1

[21] = tested on: SCC-9
Description: as §1

Compound	IC50 (ln) [1]	IC50 (ln) [2]	IC50 (ln) [3]	IC50 (ln) [4]	IC50 (ln) [5]	IC50 (ln) [6]	IC50 (ln) [7]	IC50 (ln) [8]	IC50 (ln) [9]	IC50 (ln) [10]	IC50 (ln) [11]	IC50 (ln) [12]	IC50 (ln) [13]	IC50 (ln) [14]	IC50 (ln) [15]	IC50 (ln) [16]	IC50 (ln) [17]	IC50 (ln) [18]	IC50 (ln) [19]	IC50 (ln) [20]	IC50 (ln) [21]
CC(=O)O[C@H]1C(=O)[C@@]2(C)[C@H]([C@H](OC(=O)c3ccccc3)[C@]3(O)C[C@H](OC(=O)[C@H](O)[C@@H](NC(=O)c4ccccc4)c4ccccc4)C(C)=C1C3(C)C)[C@]1(OC(C)=O)CO[C@@H]1C[C@@H]2O [Paclitaxel]	-4.66	-5.78	-5.5	-3.47	-5.25	-4.87	-4.44	-4.99	-5.85	-4.85	-5.51	-3.72	-5.21	-2.48	-2.73	-6.11	-6.34	-4.96	-5.88	-2.85	-3.62
Cc1[nH]c2ccccc2c1CCNCc1ccc(/C=C/C(=O)NO)cc1 [Panobinostat]	-1.26	-1.97	-1.39	-1.8	-2.11	-2.26	0.481	-2.16	-1.23	-0.934	-2.37	-1.92	-2.65	-0.667	-0.0634	-1.77	-2	-1.01	-2.37	-0.846	0.43
CO[C@H]1C[C@@H]2CC[C@@H](C)[C@@](O)(O2)C(=O)C(=O)N2CCCC[C@H]2C(=O)O[C@H]([C@H](C)C[C@@H]2CC[C@@H](O)[C@H](OC)C2)CC(=O)[C@H](C)/C=C(\C)[C@@H](O)[C@@H](OC)C(=O)[C@H](C)C[C@H](C)/C=C/C=C/C=C/1C [Rapamycin]	-2.97	-4.26	-0.198	-0.895	-3.89	-2.68	-0.458	-3.47	-2.87	-2.25	-2.12	-2.71	-2.82	-2.47	-1.49	-1.89	-2.93	-1.41	-3.35	-0.663	-0.629
C/C=C1\NC(=O)[C@H]2CSSCC/C=C/[C@H](CC(=O)N[C@H](C(C)C)C(=O)N2)OC(=O)[C@H](C(C)C)NC1=O [Romidepsin]	-3.85	-3.64	-4.27	-4.87	-5.44	-5.8	-3.74	-4.55	-4.88	-4.05	-5.62	-5.24	-5.72	-4.02	-2.03	-5.04	-5.03	-4.13	-4.74	-3.12	-3.68
CCc1c2c(nc3ccc(O)cc13)-c1cc3c(c(=O)n1C2)COC(=O)[C@]3(O)CC [SN-38]	-2.3	-5.1	-3.53	-5.93	-3.86	-4.49	-1.9	-2.97	-5.53	-1.02	-2.86	-1.5	-3.75	-0.854	-4.28	-3.32	-4.81	-5	-5.13	-2.9	-0.268
COCC[n+]1c2c(n(Cc3cnccn3)c1C)C(=O)c1ccccc1C2=O [Sepantronium bromide]	-2.96	-5.54	-3.91	-6.78	-4.12	-5.11	-1.33	-6.01	-5.94	-2.2	-6.01	-3.53	-2.05	-6.45	-4.35	-4.45	-4.09	-3.1	-5.9	-4.17	-6.15
CN[C@@H]1C[C@H]2O[C@@](C)([C@@H]1OC)n1c3ccccc3c3c4c(c5c6ccccc6n2c5c31)C(=O)NC4 [Staurosporine]	-2.23	-4.45	-2.53	-1.77	-4.98	-5.03	-2.54	-3.75	-3.4	-2.87	-3.62	-3.13	-4.99	-1.49	-2.01	-2.55	-4.74	-2.94	-4.38	-1.61	-1.81
CN(C)C/C=C/C(=O)Nc1ccc(C(=O)Nc2cccc(Nc3ncc(Cl)c(-c4c[nH]c5ccccc45)n3)c2)cc1 [THZ1]	-2.48	-2.58	-2.18	-1.01	-2.27	-2.01	-1.28	-2.4	-2.07	-1.1	-2.1	-2.66	-2.72	-0.297	-0.322	-1.93	-2.18	-1.9	-1.93	-1.3	-0.456
CC[C@@]1(O)C(=O)OCc2c1cc1n(c2=O)Cc2cc3c(CN(C)C)c(O)ccc3nc2-1 [Topotecan]	-0.561	-2.24	-0.991	-2.78	-1.41	-1.49	-0.116	-0.763	-2.93	-0.563	-0.589	-0.253	-1.82	1.32	-1.66	-1.36	-2.17	-1.8	-1.86	-0.416	1.79
CC[C@]1(O)C[C@@H]2CN(CCc3c([nH]c4ccccc34)[C@@](C(=O)OC)(c3cc4c(cc3OC)N(C)[C@H]3[C@@](O)(C(=O)OC)[C@H](OC(C)=O)[C@]5(CC)C=CCN6CC[C@]43[C@@H]65)C2)C1 [Vinblastine]	-3.12	-5.86	-6	-2.06	-3.94	-5.08	-3.39	-5.51	-5.8	-5.52	-4.28	0.0626	-5.26	-0.44	0.489	-7.11	-4.52	-1.25	-6.16	-2.73	-1.75
